# Measured values reported in patent publication US20210254056A1, “IDENTIFICATION AND TARGETED MODULATION OF GENE SIGNALING NETWORKS” (CAMP4 THERAPEUTICS CORPORATION, priority 2017, published 2021).
# System: hepatocytes
# Assay: RNA-seq of hepatocytes treated with Phase III failure compounds
# Protocol: RNA-seq was performed to determine the effects of the compounds on hepatocytes.
# Significance was determined by the criteria of FPKM≥0.5, a log 2(fold-change)≥1, and a […].
compound,measurement,setting,value
CCOC(=O)N1c2ccc(C(F)(F)F)cc2[C@@H](N(Cc2cc(C(F)(F)F)cc(C(F)(F)F)c2)C(=O)OC)C[C@H]1CC [Torcetrapib],"RNA-seq results, CYP2B6 expression",,0.36
same,"RNA-seq results, CYP2C19 expression",,0.61
same,"RNA-seq results, CYP2D6 expression",,−0.16
same,"RNA-seq results, CYP3A4 expression",,1.87
same,"RNA-seq results, CYP7B1 expression",,0.26
same,"RNA-seq results, CYP39A1 expression",,0.03
same,RNA-seq results: CYP2B6 expression,,0.09
same,RNA-seq results: CYP2C19 expression,,−0.14
same,RNA-seq results: CYP2D6 expression,,0.24
same,RNA-seq results: CYP3A4 expression,,0.49
same,RNA-seq results: CYP7B1 expression,,−0.44
same,RNA-seq results: CYP39A1 expression,,0
same,significant modulation of expression of disease genes,"RNA-seq, q≤0.05, hepatocytes, genes in the value or listed in the block","significantly (q≤0.05) modulate expression of the following genes: ACTG2, CYP3A4, ID1, KMT2D, and UTRN"
same,RNA-seq results: A1BG expression,"gene A1BG, hepatocytes",−0.38
same,RNA-seq results: AGTR1 expression,"gene AGTR1, hepatocytes",−0.45
same,RNA-seq results: AGXT expression,"gene AGXT, hepatocytes",−0.25
same,RNA-seq results: AHI1 expression,"gene AHI1, hepatocytes",0.19
same,RNA-seq results: AMPD3 expression,"gene AMPD3, hepatocytes",0.28
same,RNA-seq results: AMT expression,"gene AMT, hepatocytes",−0.11
same,RNA-seq results: ANGPTL3 expression,"gene ANGPTL3, hepatocytes",−0.46
same,RNA-seq results: ANKS4B expression,"gene ANKS4B, hepatocytes",−0.02
same,RNA-seq results: ANKS6 expression,"gene ANKS6, hepatocytes",0.19
same,RNA-seq results: ANPEP expression,"gene ANPEP, hepatocytes",−0.19
same,RNA-seq results: AOC2 expression,"gene AOC2, hepatocytes",0.53
same,RNA-seq results: APOA2 expression,"gene APOA2, hepatocytes",−0.76
same,RNA-seq results: APOA5 expression,"gene APOA5, hepatocytes",−0.36
same,RNA-seq results: APOB expression,"gene APOB, hepatocytes",0.90
same,RNA-seq results: COG5 expression,"gene COG5, hepatocytes",0.24
same,RNA-seq results: COG6 expression,"gene COG6, hepatocytes",0.29
same,RNA-seq results: COL1A1 expression,"gene COL1A1, hepatocytes",−0.43
same,RNA-seq results: COX6A1 expression,"gene COX6A1, hepatocytes",0.62
same,RNA-seq results: CP expression,"gene CP, hepatocytes",−0.27
same,RNA-seq results: CPS1 expression,"gene CPS1, hepatocytes",−0.75
same,RNA-seq results: CPT1A expression,"gene CPT1A, hepatocytes",−0.4
same,RNA-seq results: CPT2 expression,"gene CPT2, hepatocytes",−0.1
same,RNA-seq results: CROT expression,"gene CROT, hepatocytes",−0.33
same,RNA-seq results: CSPP1 expression,"gene CSPP1, hepatocytes",0.17
same,RNA-seq results: CTC1 expression,"gene CTC1, hepatocytes",−0.2
same,RNA-seq results: CTDSP2 expression,"gene CTDSP2, hepatocytes",0.03
same,RNA-seq results: CTH expression,"gene CTH, hepatocytes",2.52
same,RNA-seq results: CTNS expression,"gene CTNS, hepatocytes",−0.12
same,RNA-seq results: CTSF expression,"gene CTSF, hepatocytes",0.3
same,RNA-seq results: CTSK expression,"gene CTSK, hepatocytes",0
same,RNA-seq results: CYB5A expression,"gene CYB5A, hepatocytes",0.21
same,RNA-seq results: CYB5R3 expression,"gene CYB5R3, hepatocytes",0.07
same,RNA-seq results: CYP27A1 expression,"gene CYP27A1, hepatocytes",0.12
same,RNA-seq results: DAO expression,"gene DAO, hepatocytes",−0.72
same,RNA-seq results: DBT expression,"gene DBT, hepatocytes",0
same,RNA-seq results: DCDC2 expression,"gene DCDC2, hepatocytes",−0.51
same,RNA-seq results: DCXR expression,"gene DCXR, hepatocytes",0.37
same,RNA-seq results: FABP1 expression,"gene FABP1, hepatocytes",0.58
same,RNA-seq results: FADD expression,"gene FADD, hepatocytes",0.43
same,RNA-seq results: FAM111A expression,"gene FAM111A, hepatocytes",−0.26
same,RNA-seq results: FAM111B expression,"gene FAM111B, hepatocytes",−1.74
same,RNA-seq results: FAN1 expression,"gene FAN1, hepatocytes",0.14
same,RNA-seq results: FARS2 expression,"gene FARS2, hepatocytes",0.06
same,RNA-seq results: FASLG expression,"gene FASLG, hepatocytes",−1.19
same,RNA-seq results: FGA expression,"gene FGA, hepatocytes",−0.25
same,RNA-seq results: FGD1 expression,"gene FGD1, hepatocytes",−0.63
same,RNA-seq results: FGFR2 expression,"gene FGFR2, hepatocytes",0.15
same,RNA-seq results: FIG4 expression,"gene FIG4, hepatocytes",0
same,RNA-seq results: FIS1 expression,"gene FIS1, hepatocytes",0.52
same,RNA-seq results: FTCD expression,"gene FTCD, hepatocytes",−0.05
same,RNA-seq results: FTH1 expression,"gene FTH1, hepatocytes",0.6
same,RNA-seq results: FUCA1 expression,"gene FUCA1, hepatocytes",0.01
same,RNA-seq results: FXN expression,"gene FXN, hepatocytes",−0.17
same,RNA-seq results: G6PC3 expression,"gene G6PC3, hepatocytes",−0.07
same,RNA-seq results: G6PC expression,"gene G6PC, hepatocytes",−0.17
same,RNA-seq results: G6PD expression,"gene G6PD, hepatocytes",−0.05
same,RNA-seq results: GALK1 expression,"gene GALK1, hepatocytes",0.4
same,RNA-seq results: GALK2 expression,"gene GALK2, hepatocytes",0.22
same,RNA-seq results: GALT expression,"gene GALT, hepatocytes",−0.21
same,RNA-seq results: GATA6 expression,"gene GATA6, hepatocytes",0.17
same,RNA-seq results: GATM expression,"gene GATM, hepatocytes",−0.33
same,RNA-seq results: GBA expression,"gene GBA, hepatocytes",−0.07
same,RNA-seq results: GBE1 expression,"gene GBE1, hepatocytes",0.39
same,RNA-seq results: GCH1 expression,"gene GCH1, hepatocytes",0.23
same,RNA-seq results: GCKR expression,"gene GCKR, hepatocytes",−0.19
same,RNA-seq results: GCLC expression,"gene GCLC, hepatocytes",0.13
same,RNA-seq results: GOSH expression,"gene GOSH, hepatocytes",0.22
same,RNA-seq results: RRM2B,"gene RRM2B, hepatocytes",0.48
same,RNA-seq results: RSAD1,"gene RSAD1, hepatocytes",−0.11
same,RNA-seq results: SAMHD1,"gene SAMHD1, hepatocytes",0.25
same,RNA-seq results: SC5D,"gene SC5D, hepatocytes",−0.01
same,RNA-seq results: SCARB1,"gene SCARB1, hepatocytes",−0.17
same,RNA-seq results: SCN9A,"gene SCN9A, hepatocytes",0.25
same,RNA-seq results: SDCCAG8,"gene SDCCAG8, hepatocytes",−0.03
same,RNA-seq results: SEPN1,"gene SEPN1, hepatocytes",0.28
same,RNA-seq results: SERAC1,"gene SERAC1, hepatocytes",0.29
same,RNA-seq results: SERPINA1,"gene SERPINA1, hepatocytes",−0.19
same,RNA-seq results: SERPING1,"gene SERPING1, hepatocytes",−0.11
same,RNA-seq results: SERPINI1,"gene SERPINI1, hepatocytes",−0.19
same,RNA-seq results: SETBP1,"gene SETBP1, hepatocytes",−0.14
same,RNA-seq results: SFXN4,"gene SFXN4, hepatocytes",−0.46
same,RNA-seq results: SLC10A1,"gene SLC10A1, hepatocytes",−0.03
same,RNA-seq results: SLC10A3,"gene SLC10A3, hepatocytes",0.11
same,RNA-seq results: SLC10A5,"gene SLC10A5, hepatocytes",0.18
same,RNA-seq results: SLC10A7,"gene SLC10A7, hepatocytes",0.23
same,RNA-seq results: SLC11A2,"gene SLC11A2, hepatocytes",0.32
same,RNA-seq results: SLC19A1,"gene SLC19A1, hepatocytes",−0.21
same,RNA-seq results: SLC19A2,"gene SLC19A2, hepatocytes",0.32
same,RNA-seq results: SLC19A3,"gene SLC19A3, hepatocytes",−0.31
same,RNA-seq results: SLC22A1,"gene SLC22A1, hepatocytes",−0.22
same,RNA-seq results: SLC22A5,"gene SLC22A5, hepatocytes",−0.06
same,RNA-seq results: SLC25A1,"gene SLC25A1, hepatocytes",−0.33
same,RNA-seq results: SLC25A10,"gene SLC25A10, hepatocytes",−0.31
same,RNA-seq results: SLC25A12,"gene SLC25A12, hepatocytes",−0.27
same,RNA-seq results: SLC25A13,"gene SLC25A13, hepatocytes",0.25
same,RNA-seq results: SLC25A15,"gene SLC25A15, hepatocytes",−0.09
same,RNA-seq results: SLC25A19,"gene SLC25A19, hepatocytes",−0.43
same,RNA-seq results: SLC25A20,"gene SLC25A20, hepatocytes",−0.35
same,RNA-seq results: SLC25A29,"gene SLC25A29, hepatocytes",−0.13
same,RNA-seq results: SLC25A32,"gene SLC25A32, hepatocytes",−0.10
